The source of these data is patent US6072051A, “Nucleoside derivatives and process for preparing the same” (priority 1995, dated 2000).

Like-named read-outs stand apart in the source and are kept apart here.

Series [1] relates to HBV. The following applies: Proc. Natl. Acad. Sci. USA, 88, 8495 (1991); Biochem. Pharm., 47, 171 (1994); cited from earlier work.
Series [2] deals with HBV. Nature of the series: Test of Anti-HBV Activity in Hep G2 2.2.15 cell lines. The series is classed as cell-based. Conditions: for EC50 / EC90: Hepatitis B virus, HepG2 2.2.15. How it is done: (§1) The anti-HBV activity of the compounds according to the present invention, was tested in Hep G2 2.2.15 cell lines, as using 2',3'-dideoxycytidine as a control compound.
Series [3] can be described thus: Toxicity (CC50) in Hep G2 2.2.15 cell lines, anti-HBV test. The series is classed as cell-based. The following applies: human, hep g2 2.2.15 cells. Here is the method:
as §1

[4] abbreviates: Hep G2 2.2.15 cell lines, anti-HBV activity, read-out: EC50.
[5] abbreviates: Hep G2 2.2.15 cell lines, anti-HBV activity, read-out: EC90.

For `Nc1ccn([C@@H]2CC[C@H](CO)O2)c(=O)n1` [2', 3'-dideoxy-β-L-cytidine], in series [1], the “anti-HBV activity (reported)” value was “have anti-HBV activity”.

With `Nc1nc(=O)n([C@@H]2CC[C@H](CO)O2)cc1F` [2', 3'-dideoxy-β-L-5-fluorocytidine], the “anti-HBV activity (reported)” value in series [1] is “have anti-HBV activity”.

What is called EC50 is the concentration giving half of the maximal effect. A word on the EC90: it is the concentration at which the effect reaches the 90% level. Usually CC50 stands for the concentration at which the toxic effect on the cells reaches its halfway point. Regarding `Nc1nc(=O)n([C@H]2C[C@](F)(CO)CO2)cc1F` (relative stereo) [Compound 10, trans-2-(5-Fluorocytosin-1-yl)-4-fluoro-4-hydroxymethyltetrahydrofuran], the EC50 in series [2] (setting [4]) came out at 0.061 µM. Further, in series [2] (setting [5]), the 90% effect concentration (EC90) is 0.835 µM. Also, the “Sl (CC50 /EC90)” value in series [2] (human, hep g2 2.2.15 cells) is given as 1,444. This compound gave a CC50 in series [3] of 955 µM.

In the case of `Nc1nc(=O)n([C@H]2CS[C@@H](CO)O2)cc1F` [5-fluoro-2', 3'-dideoxy-3'-thiacytidine], the “anti-HBV activity (reported)” value in series [1] is “have anti-HBV activity”.

Consider `Nc1ccn([C@@H]2C[C@](F)(CO)CO2)c(=O)n1` (relative stereo) [Compound 7, cis-2-(Cytosin-1-yl)-4-fluoro-4-hydroxymethyltetrahydrofuran], for which the EC50 in series [2] (setting [4]) turned out to be 0.011 µM. Further, in series [2] (setting [5]), the EC90 is 0.143 µM. Further, the “Sl (CC50 /EC90)” value in series [2] (human, hep g2 2.2.15 cells) is reported as 10,811. The same compound came in with a CC50 in series [3] of 1550 µM.

Turning to `O=c1[nH]c(=O)n([C@H]2C[C@](F)(CO)CO2)cc1I` (relative stereo) [Compound 16, trans-2-(5-iodouracil-1-yl)-4-fluoro-4-hydroxymethyltetrahydrofuran], the EC50 in series [2] (setting [4]) amounted to 0.8 µM. The EC90 in series [2] (setting [5]) was found to be 5.3 µM. For the same compound, the “Sl (CC50 /EC90)” value in series [2] (human, hep g2 2.2.15 cells) turned out to be 85. This compound also came in with a CC50 in series [3] of 451 µM.

Turning to `Cc1cn([C@@H]2C[C@](F)(CO)CO2)c(=O)[nH]c1=O` (relative stereo) [Compound 5, cis-2-(Thymin-1-yl)-4-fluoro-4-hydroxymethyltetrahydrofuran], the EC50 in series [2] (setting [4]) was 0.1 µM. In addition, the EC90 in series [2] (setting [5]) is 0.8 µM. For the same compound, in series [2] (human, hep g2 2.2.15 cells), the “Sl (CC50 /EC90)” value is on record as 590. Further, the CC50 in series [3] stood at 472 µM.

Take `Nc1ccn([C@H]2CC[C@@H](CO)O2)c(=O)n1` [Control compound, 2',3'-dideoxycytidine, reference compound]: in series [2], the EC50 came to 7.57 µM and it took 35 µM to reach the 90% level (EC90). In addition, the “Sl (CC50 /EC90)” value in series [2] (ratio CC50 /EC90, Hep G2 2.2.15 cell lines) was 30.811. In series [3], this compound returned a CC50 of 1080 µM.

`Nc1ccn([C@H]2CS[C@@H](CO)O2)c(=O)n1` [2',3'-dideoxy-3'-thiacytidine]: the “anti-HBV activity (reported)” value in series [1] is reported as “have anti-HBV activity”.

For `Nc1ccn([C@H]2C[C@](F)(CO)CO2)c(=O)n1` (relative stereo) [Compound 8, trans-2-(Cytosin-1-yl)-4-fluoro-4-hydroxymethyltetrahydrofuran], in series [2] (setting [4]), the EC50 is 0.08 µM. For the same compound, the EC90 in series [2] (setting [5]) stood at 0.522 µM. Also, in series [2] (human, hep g2 2.2.15 cells), the “Sl (CC50 /EC90)” value was 2,874. Also, the CC50 in series [3] was determined as 1500 µM.

Regarding `O=c1[nH]c(=O)n([C@@H]2C[C@](F)(CO)CO2)cc1I` (relative stereo) [Compound 15, cis-2-(5-Iodouracil-1-yl)-4-fluoro-4-hydroxymethyltetrahydrofuran], in series [2] (setting [4]), the EC50 was 0.6 µM. For the same compound, the EC90 in series [2] (setting [5]) is 4.4 µM. Moreover, the “Sl (CC50 /EC90)” value in series [2] (human, hep g2 2.2.15 cells) is 501. The same compound displayed a CC50 in series [3] of 2200 µM.

As to `Cc1cn([C@H]2C[C@](F)(CO)CO2)c(=O)[nH]c1=O` (relative stereo) [Compound 6, trans-2-(Thymin-1-yl)-4-fluoro-4-hydroxymethyltetrahydrofuran], in series [2] (setting [4]), the EC50 was found to be 0.2 µM. Also, in series [2] (setting [5]), the EC90 worked out at 1 µM. Further, the “Sl (CC50 /EC90)” value in series [2] (human, hep g2 2.2.15 cells) is recorded as 2,321. Moreover, it took 2320 µM to reach half-maximal cytotoxicity in series [3] (CC50).

With `Nc1nc(=O)n([C@@H]2C[C@](F)(CO)CO2)cc1F` (relative stereo) [Compound 9, cis-2-(5-Fluorocytosin-1-yl)-4-fluoro-4-hydroxymethyltetrahydrofuran], in series [2] (setting [4]), the EC50 stood at 0.8 µM. Besides, in series [2] (setting [5]), the EC90 was 0.7 µM. The “Sl (CC50 /EC90)” value in series [2] (human, hep g2 2.2.15 cells) was 319. The compound further returned a CC50 in series [3] of 2230 µM.
